This note sets out measurements from US20250387378A1, “METHODS AND COMPOSITIONS FOR PREVENTING SKIN TOXICITIES CAUSED BY BIOLOGICAL TARGETED CANCER DRUGS” (Hadasit Medical Research Services & Development Limited, priority 2019, published 2025).

“Also recorded” adds a separate entry of the source. Where a name gives a salt, the structure may show the parent alone.

One data set relates to keratinocytes. The experiment in a line: percent live keratinocytes after adding sn molecules to erlotinib and gefitinib. It is filed as cell-based. The settings on record: added to erlotinib and gefitinib, FIG. 9B.
The target of data set [1] is T1, EGFR (Homo sapiens, UniProt P00533). The experiment in a line: ELISA, blocking of cetuximab binding to EGFR. The settings on record: for blocking of cetuximab binding to EGFR (in words): ELISA.
Data set [2] has as its target T1, EGFR. The experiment in a line: blocking of panitumumab (vectibix) binding to EGFR. Particulars: FIG. 3.
Data set [3] deals with A431 cells. The experiment in a line: annexin-V/PI flow cytometry, panitumumab induced death in A431 cells. The data set is classed as cell-based. Particulars: 72 hours. Here is the method: Apoptosis and cell death were evaluated by annexin-V and propidium-iodide (PI) labeling, followed by flow cytometry. The experiments show improved cell viability of A431 cells treated with G-4 and E-3 compounds with panitumumab as compared to panitumumab alone. A) flow cytometry of one representative experiment showing elevation of percentage of live cells from 18% live cells after panitumumab alone verses 40% live cells with panitumumab and G-4 compound and 42% live cells with E-3 compound and panitumumab treatment. B) bar graph depicting percent live A431 cells with the different treatment conditions.
On the technique in general: In flow cytometry, cells or beads pass a laser one at a time.

Data set [4] deals with phosphorylated EGFR receptor. The experiment in a line: p-EGFR level by flow cytometry, A431 cells treated with EGF and cetuximab. The settings on record: for effect on p-EGFR expression (in words): A431 cells treated with cetuximab, 5 uM compound; for activated levels of p-EGFR: A431 cells, 20 minutes, EGF, cetuximab and 5 uM compound. The data set is classed as cell-based. On the procedure:
(§1) The level of phosphorylated EGFR receptor was measured in cell lines by flow cytometry.

The subject of data set [5] is phosphorylated EGFR receptor. The experiment in a line: p-EGFR level by flow cytometry, HaCaT cells treated with EGF and cetuximab. The data set is classed as cell-based, human. The settings on record: for effect on p-EGFR expression (in words): HaCaT cells treated with cetuximab, 5 uM compound. On the procedure:
(§2) The novel approach proposed by the invention is to specifically target and block the effect of the anti-neoplastic biological targeted agents in the skin.
as §1

In data set [6] the test system is A431 cells. The experiment in a line: annexin-V/PI flow cytometry, cetuximab induced cell death in A431 cells. The data set is classed as cell-based. Here is the method: (§3) Apoptosis and cell death were evaluated by annexin-V and propidium-iodide (PI) labeling, followed by flow cytometry.
The test system of data set [7] is HaCaT cells. The experiment in a line: annexin-V/PI flow cytometry, cetuximab induced cell death in HaCaT cells. It is filed as cell-based, human. On the procedure: as §2, §3
Data set [8] can be described thus: Franz chamber skin penetration. It is filed as in vitro ADME, human. Particulars: FIG. 12. The text has this:
The inventors designed and fabricated solidified polymer micelles composed of linear […] (PEG-PLA) of ˜20 nm, which was previously shown to have stability and ability to penetrate cells efficiently.

Data set [9] concerns HaCaT cells. The experiment in a line: annexin-V/PI flow cytometry, erlotinib induced death in HaCaT cells. The data set is classed as cell-based, human. The settings on record: erlotinib alone, 72 hours. On the procedure: To test if ATP analogues can protect keratinocyte from erlotinib induced death we treated HaCaT cells with erlotinib alone and with erlotinib+5 uM ATP analogue for 72 hours. Apoptosis and cell death were evaluated by annexin-V and propidium-iodide (PI) labeling, followed by flow cytometry. […] B) bar graph depicting percent dead HaCaT cells with the different treatment conditions.

The test system of a further data set is HaCaT keratinocytes. The experiment in a line: percent survival of HaCaT keratinocytes with trametinib plus sn8. It is filed as cell-based, human. Particulars: added to trametinib, FIG. 9B.
For data set [10], the target named is recombinant human EGFR (rhEGFR) (Homo sapiens, UniProt P00533). The experiment in a line: ELISA, inhibition of bispecific EGFRi antibody binding to rhEGFR. On the procedure:
(§4) The efficacity of SDT-011 efficacy in preventing bispecific EGFRi binding to recombinant human EGFR (rhEGFR) was evaluated. ELISA was used to assess binding inhibition, while MTT assays in HaCaT and A431 cell lines measured the reversal of EGFR inhibition on keratinocyte cell line proliferation, and flow cytometry quantified EGFR expression on the cell surface. Additionally, in silico docking experiments provided insights into SDT-011's mechanism of action in blocking amivantamab, petosemtamab, and izalontamab.

Data set [11] addresses T1, EGFR. The experiment in a line: flow cytometry of EGFR expression on the cell surface with bispecific EGFRi. It is filed as cell-based. On the procedure:
as §4

Data set [12] deals with HaCaT and A431 cell lines. The experiment in a line: MTT proliferation assay with bispecific EGFRi. The data set is classed as cell-based. Particulars: keratinocyte cell lines. On the procedure: as §4
[13] abbreviates: panitumumab + compound (0.5 uM and 5 uM).
The mark [14] stands for this setting: G-4 added to cetuximab treatment, 72 hours, one representative experiment.
The mark [15] stands for this setting: cetuximab + 0.5 uM and 5 uM G-4, 72 hours.

Turning to `O=C(CN1C(=O)c2ccccc2C1=O)Nc1cccc(Cl)c1` [sn9], in the data set with keratinocytes, the “percent live keratinocytes (in words)” value is reported as “improved percent live keratinocytes”.
`Cc1cc(Cl)cc(N)c1N` [E3, (2-amino-4-chloro-6-methylphenyl)amine hydrochloride]: the “blocking of cetuximab binding to EGFR (in words)” value (from here on “blocking of cetuximab binding”) at EGFR [1] (hydrochloride) is “blocking of cetuximab binding to EGFR; also recorded: dose-dependent manner”. For the same compound, the “blocking of panitumumab (vectibix) binding to EGFR (in words)” value at EGFR [2] is “block the binding”. Moreover, the live cells in the data set with A431 cells [3] (setting [13]) was determined as 42%.
Take `CC(=O)c1sc2nc(-c3cccnc3)cc(C(F)F)c2c1N` [G4, 1-[3-amino-4-(difluoromethyl)-6-(3-pyridinyl)thieno[2,3-b]pyridin-2-yl]ethanone]: the “blocking of cetuximab binding” value on EGFR [1] is “blocking of cetuximab binding to EGFR; also recorded: dose-dependent manner; also recorded: block cetuximab's binding to EGFR”. Moreover, at EGFR [1] (screening plate, FIG. 2A), the “blocking of binding of cetuximab to EGFR” value amounted to 42%. Further, at EGFR [2], the “blocking of panitumumab (vectibix) binding to EGFR (in words)” value is “block the binding”. The “effect on p-EGFR expression (in words)” value in data set [4] and in data set [5] was “increase p-EGFR expression” each time. Besides, the “activated levels of p-EGFR” value in data set [4] is reported as approximately 30%. In addition, the results for the live cells in the data set with A431 cells [6] (setting [14]), in the data set with HaCaT cells [7] (setting [14]) and in the data set on A431 cells [3] (setting [13]) were 54.5%, 64% and 40%, respectively. The results for the “average improvement of viability against cetuximab induced cell death” value in the data set with A431 cells [6] (setting [15]) and with HaCaT cells [7] (setting [15]) were “more than 50%” and 30%, respectively. The “penetration through full human skin (in words)” value in [8] is “does not penetrate full human skin”.
With `N#Cc1cc(N)ccc1F` [sn6], the “percent live keratinocytes (in words)” value in the data set with keratinocytes was “improved percent live keratinocytes”.
“panitumumab: human monoclonal antibody specific to the epidermal growth factor receptor [reference compound]” gave a live cells with A431 cells [3] (panitumumab alone) of 18%.
Consider `CC(=O)Nc1ccc(F)c(Cl)c1` [sn7], for which the “percent live keratinocytes (in words)” value in the data set on keratinocytes is reported as “improved percent live keratinocytes”.
`C#Cc1cccc(Nc2ncnc3cc(OCCOC)c(OCCOC)cc23)c1` [erlotinib] had a dead cells with HaCaT cells [9] of 13.5%.
Regarding `Nc1ccc(OCc2ccccn2)c(Cl)c1` [sn8], the “percent live keratinocytes (in words)” value in the data set on keratinocytes is “improved percent live keratinocytes”. The “percent survival of HaCaT keratinocytes (in words)” value in the data set with HaCaT keratinocytes is “improved percent survival of HaCaT keratinocytes”.
As to `Cc1ccc(-c2cc(C(F)(F)F)c3c(N)c(C#N)sc3n2)cc1` [LW11], the “blocking of cetuximab binding” value on EGFR [1] is reported as “dose-dependent manner; also recorded: block cetuximab's binding to EGFR”. Moreover, the “effect on p-EGFR expression (in words)” value in [4] and in data set [5] was “increase p-EGFR expression” throughout. The “activated levels of p-EGFR” value in data set [4] was approximately 30%; in [5] (HaCaT cells, 20 minutes, EGF, cetuximab and 5 uM compound), “up to 46%”. The “inhibition of amivantamab binding to EGFR (in words)” value in [10] (FIG. 17 panel A) is reported as “effectively inhibited the binding”. Besides, in [10] (FIG. 17 panel B), the “inhibition of petosemtamab binding to EGFR (in words)” value is given as “effectively inhibited the binding”. Further, in data set [10] (FIG. 17 panel C), the “inhibition of izalontamab binding to EGFR (in words)” value is listed as “effectively inhibited the binding”. At EGFR [11] (FIG. 18 panel A), the “total EGFR (tEGFR) expression / receptor internalization by amivantamab (in words)” value is given as “stabilizes total EGFR (tEGFR) expression”. For the same compound, on EGFR [11] (FIG. 18 panel B), the “total EGFR (tEGFR) expression / receptor internalization by petosemtamab (in words)” value is listed as “stabilizes total EGFR (tEGFR) expression”. Also, the “total EGFR (tEGFR) expression / receptor internalization by izalontamab (in words)” value on EGFR [11] (FIG. 18 panel C) is “stabilizes total EGFR (tEGFR) expression”. In data set [12] (FIG. 18 panel D), the “antiproliferative effects induced by amivantamab (in words)” value is “reversal of the antiproliferative effects”. Further, the “antiproliferative effects induced by petosemtamab (in words)” value in [12] (FIG. 18 panel E) is on record as “reversal of the antiproliferative effects”. Further, the “antiproliferative effects induced by izalontamab (in words)” value in data set [12] (FIG. 18 panel F) was “reversal of the antiproliferative effects”.
